Results on 11 compounds are retold here after PubChem BioAssay (NCI).

Test systems include SNB-19 CNS; NCI-H226 lung; SF-295 CNS; NCI-H23 lung; NCI-H522 lung; HCT-116 colon; MOLT-4 leukemia; MCF7 breast; IGROV1 ovarian; SF-539 CNS; MALME-3M melanoma; SK-MEL-28 melanoma; OVCAR-8 ovarian; DU-145 prostate; CCRF-CEM leukemia.
Common to all, as to experiment: inhibition of tumour cell growth, NCI panel, 48 h

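Five concentrations, 48 hours, 96-well plates. TGI denotes the concentration required for complete inhibition of growth.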 Where only a bound is given, the exact number is not on record here.

As to `C/C=C\C(CC(=O)OC)CC(=O)N(CCC1CN(S(=O)(=O)C(F)(F)F)c2ccccc21)Cc1ccc(OC)cc1OC` (stereo not given), the TGI in the assay on SNB-19 CNS, in the assay on NCI-H226 lung, in the assay with SF-295 CNS, with NCI-H23 lung, in the assay with NCI-H522 lung and with HCT-116 colon was above 100 µM in each case. Moreover, the TGI in the assay with MOLT-4 leukemia, with MCF7 breast, in the assay on IGROV1 ovarian, in the assay on SF-539 CNS, in the assay with MALME-3M melanoma and in the assay with SK-MEL-28 melanoma was above 100 µM each time.

With `CC(C)(C)[Si](C)(C)OCC1OC(n2ccc(=O)[nH]c2=O)C(O[Si](C)(C)C(C)(C)C)[C@]12O[C@@H]2CO` (stereo not given in full), the TGI in the assay on SNB-19 CNS is 24 µM; with NCI-H226 lung, 30.7 µM; in the assay with SF-295 CNS, 23.7 µM; in the assay with OVCAR-8 ovarian, above 100 µM; in the assay with NCI-H23 lung, 30.2 µM; in the assay on NCI-H522 lung, 29.7 µM. The TGI in the assay with HCT-116 colon came out at 39 µM; with MOLT-4 leukemia, 46.3 µM; in the assay on MCF7 breast, 38.2 µM; in the assay on IGROV1 ovarian, 33.1 µM; in the assay on SF-539 CNS, 47.7 µM; in the assay on SK-MEL-28 melanoma, 34.6 µM. The same compound gave a TGI in the assay on DU-145 prostate of 38.1 µM.

As to `CN(/N=C\c1ccnc2ccccc12)c1ccccc1`, the TGI was above 100 µM in the assay with SNB-19 CNS; 71.5 µM with SF-295 CNS; above 100 µM in the assay with OVCAR-8 ovarian; 48.6 µM in the assay with NCI-H23 lung; 41.9 µM with NCI-H522 lung; 45.1 µM in the assay on CCRF-CEM leukemia. Further, the TGI was 36 µM with HCT-116 colon; above 100 µM with MOLT-4 leukemia; above 100 µM in the assay with IGROV1 ovarian; 71.6 µM in the assay on SF-539 CNS; 52.8 µM with MALME-3M melanoma; 82.7 µM in the assay on SK-MEL-28 melanoma.

For the compound `O=C(CC1(O)C(=O)Nc2c(Cl)cc(Cl)cc21)c1ccc(F)cc1` (stereo not given), the TGI was above 100 µM in the assay with SNB-19 CNS; above 100 µM in the assay on NCI-H226 lung; above 100 µM in the assay with SF-295 CNS; 47.6 µM in the assay on OVCAR-8 ovarian; 70.9 µM in the assay on NCI-H23 lung; above 100 µM in the assay on HCT-116 colon. The TGI in the assay on IGROV1 ovarian is 67.6 µM; with SF-539 CNS it was 57.4 µM; in the assay on MALME-3M melanoma, above 100 µM; with SK-MEL-28 melanoma it was above 100 µM.

As for `CC(=O)NNc1nc(C)c(C(=O)/C=C/c2ccc(Cl)c(Cl)c2)s1`, the TGI in the assay with SNB-19 CNS, in the assay with SF-295 CNS, in the assay with OVCAR-8 ovarian, with NCI-H23 lung, in the assay with NCI-H522 lung and in the assay with CCRF-CEM leukemia was above 100 µM throughout. For the same compound, the TGI in the assay with MOLT-4 leukemia, with IGROV1 ovarian, with SF-539 CNS, in the assay with MALME-3M melanoma and in the assay with SK-MEL-28 melanoma was above 100 µM in each case.

Take `COC(=O)C(c1ccc(OC)cc1)N1C(=O)[C@@H](NC(=O)c2ccccc2)[C@H]1[C@@H](C)O` (stereo not given in full): the TGI in the assay on SNB-19 CNS, in the assay on NCI-H226 lung, with SF-295 CNS, with OVCAR-8 ovarian, in the assay on NCI-H23 lung and with NCI-H522 lung was above 100 µM in each case. In addition, the TGI in the assay on CCRF-CEM leukemia, in the assay on HCT-116 colon, in the assay on MOLT-4 leukemia, in the assay on IGROV1 ovarian, in the assay with SF-539 CNS and in the assay on MALME-3M melanoma was above 100 µM throughout. The TGI with SK-MEL-28 melanoma is above 100 µM.

Turning to `CCCCCCCCCCCCC(Br)C(C)=O` (stereo not given), the TGI in the assay on SNB-19 CNS, in the assay on NCI-H226 lung, in the assay on SF-295 CNS, in the assay on OVCAR-8 ovarian, in the assay with NCI-H23 lung and with NCI-H522 lung was above 100 µM in each case. Moreover, the TGI with CCRF-CEM leukemia, in the assay on HCT-116 colon, in the assay with IGROV1 ovarian, with SF-539 CNS, in the assay with MALME-3M melanoma and in the assay on SK-MEL-28 melanoma was above 100 µM throughout.

Turning to `CC1=C(C(=O)CC(=O)C(=O)Nc2ccc(C)c(C)c2)Sc2ccccc2N1`, the TGI in the assay with SNB-19 CNS, in the assay on NCI-H226 lung, in the assay on SF-295 CNS, in the assay on OVCAR-8 ovarian, with NCI-H23 lung and in the assay with NCI-H522 lung was above 100 µM each time. Moreover, the TGI in the assay with HCT-116 colon, with IGROV1 ovarian, with SF-539 CNS, with MALME-3M melanoma and in the assay with SK-MEL-28 melanoma was above 100 µM each time.

Turning to `COc1ccc(/C=C2\CCC(CCN3CCOCC3)C2=O)cc1` (stereo not given), the TGI with SNB-19 CNS, with NCI-H226 lung, in the assay on SF-295 CNS, with OVCAR-8 ovarian, in the assay with NCI-H23 lung and with CCRF-CEM leukemia was above 100 µM throughout. For the same compound, the TGI in the assay with HCT-116 colon, in the assay with MOLT-4 leukemia, in the assay with IGROV1 ovarian, in the assay on SF-539 CNS, in the assay on MALME-3M melanoma and in the assay on SK-MEL-28 melanoma was above 100 µM in each case.

In the case of `COC(=O)C(=O)C(/C(=N/N)C(=O)Nc1ccccc1C(N)=O)c1nc2ccc([N+](=O)[O-])cc2[nH]c1=O` (stereo not given), the TGI in the assay with SNB-19 CNS, in the assay on NCI-H226 lung, with SF-295 CNS, in the assay on OVCAR-8 ovarian, in the assay on NCI-H23 lung and in the assay with NCI-H522 lung was above 100 µM throughout. Also, the TGI with CCRF-CEM leukemia, in the assay on HCT-116 colon, in the assay on MOLT-4 leukemia, in the assay on IGROV1 ovarian, in the assay on SF-539 CNS and in the assay on MALME-3M melanoma was above 100 µM throughout. Also, the TGI with SK-MEL-28 melanoma is above 100 µM.

For the compound `Cc1nc2c3c(ccc2[nH]c1=O)C(=O)c1ccccc1C3=O`, the TGI in the assay on SNB-19 CNS, in the assay with NCI-H226 lung, in the assay with SF-295 CNS, with OVCAR-8 ovarian, in the assay on NCI-H23 lung and in the assay with NCI-H522 lung was above 100 µM in each case. Further, the TGI in the assay on HCT-116 colon, in the assay on IGROV1 ovarian, in the assay with SF-539 CNS, in the assay with MALME-3M melanoma and with SK-MEL-28 melanoma was above 100 µM each time.
